Assays:
[1] = system: PGC-1α/β KO cells; experiment: Pyruvate supplementation of PGC-1α/β KO cells with or without DMOG, mitochondrial-encoded gene expression; format: cell-based, mouse; settings: DMOG added to pyruvate-treated cells
Source text: FIGS. 21A-21N provide additional data related to the content of FIG. 14. FIG. 21A depicts HIF-1α target genes (PGK-1, Glut1, PDK1 and Vegfa) expression in gastrocnemius of WT and SIRT1 KO mice. Relative expression values were normalized to WT mice (n=5). FIG. 21B depicts hypoxia response element activity in primary myoblasts isolated from WT and SIRT1 KO mice and treated with or without DMOG. Relative luciferase activity was normalized to WT cells (n=6, *p<0.05 versus WT). FIG. 21C depicts a representative immunoblot of HIF-1a and Tubulin in PGC-1α/β KO myotubes treated with adenovirus overexpressing SIRT1 or empty vector as well as treatment with DMSO or with HIF stabilizing compound DMOG. FIG. 21D depicts NAD+/NADH ration measured in primary WT myoblasts treated with either 10 mM pyruvate, 10 mM lactate or vehicle for 24 h (n=4). […] FIG. 21J depicts mitochondrial DNA content analyzed by qPCR in control, HIF-1α DPA or HIF-2α DPA C2C12 cells treated with adenovirus overexpressing SIRT1 or empty vector. […] FIG. 21K depicts ARNT mRNA analyzed by qPCR in C2C12 cells infected with ARNT or nontargeting shRNA. […] FIG. 21L depicts mitochondrial DNA content analyzed by qPCR in C2C12 cells infected with ARNT or nontargeting shRNA. […] FIG. 21M depicts ND1, Cytb, COX1 and ATP6 mRNA analyzed by qPCR in C2C12 cells infected with ARNT or nontargeting shRNA. […] Values are expressed as mean±SEM. […]

[2] = system: primary PGC-1α/β KO myotubes; experiment: NMN with or without HIF stabilizing compounds in PGC-1α/β KO myotubes, qPCR of mitochondrially-encoded ETC genes; format: cell-based, mouse
Description: As a functional test of whether NMN reverses genome asynchrony by depleting cells of HIF-1α, primary PGC-1α/β KO myotubes were incubated with NMN in the presence and absence of the HIF stabilizing compounds DMOG and DFO. […] Primary myoblasts cells were isolated from WT, SIRT1 KO (Price et al., 2012) and PGC-1α/β KO (Zechner et al., 2010) mice as previously described (Price et al., 2012). WT and PGC-1α/β KO primary myoblasts were plated and allowed to differentiate into myotubes by replacing the media with low glucose DMEM supplemented with 2% horse serum (Sigma-Aldrich) for 4 days. After the differentiation the cells were infected with empty vector or flag-SIRT1 adenovirus as described before ([…] al., 2007). Media was replaced with fresh DMEM supplemented with 2% horse serum (Sigma-Aldrich) for an additional 48 hr and, after that the cells were harvested for the different assays as described. […] Quantitative RT-PCR reactions were performed using 1 μM of primers and LightCycler® 480 SYBR Green Master (Roche) on an LightCycler® 480 detection system (Roche). Calculations were performed by a comparative method (2-ΔCT) using 18S as an internal control. For mtDNA analysis, total DNA was extracted with DNeasy blood and tissue kit (Qiagen). mtDNA was amplified using primers specific for the mitochondrial cytochrome c oxidase subunit 2 (COX2) gene and normalized to genomic DNA by amplification of the ribosomal protein s18 (rps18) nuclear gene. Primers were designed using the IDT software (IDT) and the primer sequences can be found in Table 1.

SMILES	effect on NAD+ mediated increases in mitochondrial-encoded genes [1]	effect on NMN-induced expression of mitochondrially-encoded ETC genes ([2]; HIF stabilizing compound added to NMN-treated cells, 1 mM DMOG or 10 μM DFO, 12 hours)	expression of mitochondrially-encoded ETC genes (ND1, CYTB, COX1, ATP6) ([2]; NMN alone, versus PBS)
COC(=O)CNC(=O)C(=O)OC [DMOG, dimethyloxaloylglycine]	inhibited	completely abolished	–
NC(=O)c1ccc[n+]([C@@H]2O[C@H](COP(=O)([O-])O)[C@@H](O)[C@H]2O)c1 [NMN, nicotinamide mononucleotide]	–	–	induced expression

Source: patent US20200291100A1, “TREATMENT OF AGE-RELATED AND MITOCHONDRIAL DISEASES BY INHIBITION OF HIF-1 ALPHA FUNCTION” (President and Fellows of Harvard College, priority 2012, published 2020)
